From article PMC8406801, “Naringenin Inhibits Platelet Activation and Arterial Thrombosis Through Inhibition of Phosphoinositide 3-Kinase and Cyclic Nucleotide Signaling” (Frontiers in Pharmacology, 2021)
Several values for one entry are separate records, joined by “and”; a condition that tells them apart may be missing. Equal values may be shown once.

What was measured:
[1] = test system: intracellular calcium in washed platelets; assay: Calcium mobilization in ADP-induced platelets (Fluo 3-AM, flow cytometry); type: cell-based, rat; conditions: for Calcium mobilisation (%): ADP 10 μM, single replicates
Experimental: Calcium mobilization in ADP-induced platelets was measured using flow cytometry. Washed platelets were incubated with Fluo 3-AM (5 μM) at 37°C for 30 min and washed. The Fluo 3-loaded platelets were preincubated with vehicle or different concentrations of naringenin at 37°C for 5 min in the presence of 1 mM CaCl2 and then stimulated with ADP (10 μM) for 5 min. The fluorescence intensity was analyzed using an Accuri C6 flow cytometer.

cGMP = assay: Measurement of cGMP in washed platelets (ELISA); type: cell-based, rat; conditions: single replicates
Experimental: Washed platelets were preincubated with vehicle or various concentrations of naringenin in the presence of 2 mM CaCl2 at 37°C for 5 min and then stimulated with ADP (10 μM) for 5 min for platelet aggregation. The reaction was terminated by adding EDTA (10 mM). The platelets were boiled for 5 min at 100 °C followed by centrifugation at 13,000 × g for 5 min cAMP and cGMP levels in the supernatant were measured using cAMP or cGMP enzyme immunoassay kits (Cayman Chemicals, Ann Arbor, MI, United States).
FIGURE 6 Naringenin elevates platelet cGMP levels and inhibits phosphodiesterase activity. The levels of cAMP (A) and cGMP (B) in washed platelets preincubated with vehicle or naringenin (100, 200, 400, and 800 μmol/L) were determined after stimulation with ADP (10 μmol/L) using ELISA kits. Similarly, the levels of cAMP (C) and cGMP (D) were determined in resting platelets incubated with naringenin (200, 400, and 800 μmol/L) or vehicle for 5 min. R represents the levels of cAMP or cGMP in resting platelets. Data are expressed as means ± SD (n = 4). *p < 0.05, ***p < 0.001 compared with the vehicle control group. The effects of naringenin on phosphodiesterase activity were measured by HPLC on the hydrolysis of cAMP (E) and cGMP (F). The level of phosphodiesterase activity obtained with vehicle control (0 μM) was taken as 100%. Data are expressed as means ± SD (n = 3). *p < 0.05, ***p < 0.001 compared with the vehicle control group.

O=C1C[C@@H](c2ccc(O)cc2)Oc2cc(O)cc(O)c21 [Naringenin]
mobilization of intracellular calcium induced by ADP ([1]; 400 and 800 μM): significantly prevented
Calcium mobilisation (%) ([1]; 200 μM): 46.06% and 50.52% and 43.09%
Calcium mobilisation (%) ([1]; 400 μM): 35.32% and 30.53% and 43.33%
Calcium mobilisation (%) ([1]; 800 μM): 34.54% and 21.04% and 26.06%
cGMP release (cGMP; ADP 10 μmol/L-stimulated platelets, 100 μM): 24.01 pmol/mL and 25.36 pmol/mL and 20.40 pmol/mL and 17.36 pmol/mL
cGMP release (cGMP; ADP 10 μmol/L-stimulated platelets, 200 μM): 33.37 pmol/mL and 25.13 pmol/mL and 28.27 pmol/mL and 30.16 pmol/mL
cGMP release (cGMP; ADP 10 μmol/L-stimulated platelets, 400 μM): 35.44 pmol/mL and 31.24 pmol/mL and 34.51 pmol/mL and 37.74 pmol/mL
cGMP release (cGMP; ADP 10 μmol/L-stimulated platelets, 800 μM): 43.44 pmol/mL and 33.82 pmol/mL and 49.35 pmol/mL and 41.72 pmol/mL
cGMP release (cGMP; resting platelets, 200 μM, 5 min): 32.45 pmol/mL and 25.29 pmol/mL and 28.34 pmol/mL and 23.70 pmol/mL
cGMP release (cGMP; resting platelets, 400 μM, 5 min): 30.89 pmol/mL and 30.12 pmol/mL and 36.90 pmol/mL and 24.38 pmol/mL
cGMP release (cGMP; resting platelets, 800 μM, 5 min): 36.72 pmol/mL and 44.35 pmol/mL and 55.79 pmol/mL and 49.00 pmol/mL
